Test results from article PMC12501029, “Discovery of a CNS active GSK3 degrader using orthogonally reactive linker screening” (Nature Communications, 2025).

What was measured:
[1] = Intrinsic clearance (Cli), mouse liver microsomes; type: in vitro ADME; conditions: 0.5 µM, scaling factor 48 mg microsomal protein per g liver
Protocol: (§1) Test compound (0.5 µM) was incubated with female CD1 mouse, male rat Han Wistar and pooled human liver microsomes (Xenotech^TM; 0.5 mg/mL 50 mM potassium phosphate buffer, pH7.4) and the reaction started with addition of excess NADPH (8 mg/mL 50 mM potassium phosphate buffer, pH7.4). Immediately, at time zero, then at 3, 6, 9, 15 and 30 min an aliquot (50 µL) of the incubation mixture was removed and mixed with acetonitrile (100 uL) to stop the reaction. An internal standard was added to all samples, the samples centrifuged to sediment precipitated protein and the plates then sealed prior to UPLC-MSMS analysis (Xevo TQ-S Micro, Waters^TM). XLfit (IDBS, UK) was used to calculate the exponential decay and consequently the rate constant (k) from the ratio of peak area of test compound to internal standard at each timepoint. The rate of intrinsic clearance (CLi) of each test compound was then calculated using the following calculation:1 CLi(mL/min/gliver)=kxVxMicrosomalproteinyield Where V (mL/mg protein) is the incubation volume/mg protein added and microsomal protein yield is taken as 48 mg, 46 mg and 40 mg protein/g liver for mouse, rat and human, respectively. Verapamil (0.5 µM) was used as a positive control to confirm acceptable assay performance.

[2] = Intrinsic clearance (Cli), human liver microsomes; type: in vitro ADME; conditions: 0.5 µM, scaling factor 40 mg microsomal protein per g liver
Protocol: as §1

[3] = Intrinsic clearance (Cli), rat liver microsomes; type: in vitro ADME; conditions: 0.5 µM, scaling factor 46 mg microsomal protein per g liver
Protocol: as §1

[4] = molecular target: T1, GSK3β-HiBiT (GSK3β-HiBiT KI HEK293 cells) (Homo sapiens, UniProt P49841); assay: HiBiT lytic degradation assay / high-throughput screen, 24 h; type: cell-based; conditions: 24 h treatment
T1 construct: we generated endogenously tagged GSK3β-HiBiT knock-in (KI) HEK293 cells; endogenous in cells; host or cells: GSK3β-HiBiT knock-in HEK293 cells (CRISPR/Cas9, single-cell clone)
T1 sequence (P49841 whole entry): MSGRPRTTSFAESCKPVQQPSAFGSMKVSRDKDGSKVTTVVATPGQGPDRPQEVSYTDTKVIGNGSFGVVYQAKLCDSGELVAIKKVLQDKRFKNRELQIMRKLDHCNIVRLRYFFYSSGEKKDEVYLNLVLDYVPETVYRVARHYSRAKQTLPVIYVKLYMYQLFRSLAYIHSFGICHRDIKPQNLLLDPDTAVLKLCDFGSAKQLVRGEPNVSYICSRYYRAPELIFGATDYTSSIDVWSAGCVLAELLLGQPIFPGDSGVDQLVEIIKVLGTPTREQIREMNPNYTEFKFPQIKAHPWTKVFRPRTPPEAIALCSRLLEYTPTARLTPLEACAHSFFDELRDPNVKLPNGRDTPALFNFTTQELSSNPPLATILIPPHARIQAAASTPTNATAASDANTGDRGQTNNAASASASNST
Protocol: Crude compounds were assumed to be 10 mM concentration in DMSO and after generating libraries directly used in biological tests in degradation screens. Stock solutions were serially diluted into white bottom opaque 384-well plates (Perkin Elmer) using Echo500 (Labcyte) and DMSO was backfilled to maintain same DMSO content in each well for all concentrations. […] HiBiT lytic assay buffer (Promega) prepared according to the manufacturer’s instructions and added onto each well using Multidrop^TM Combi reagent dispenser. Luminescence signal was measured on PheraStar plate reader (BMG) and obtained data normalised to DMSO conditions using Excel and further analysed using GraphPad Prism (v10.1.2) and degradation curves were generated using 4-parameter non-linear regression fit to calculate DC50 and Dmax values. Data points associated with concentrations displaying a hook effect were excluded prior to DC50 and Dmax calculation.

[5] = test system: HEK293 cells phosphoproteome; assay: Phosphoproteomics in HEK293 cells; type: cell-based, human; parameters: scale not given here; conditions: phosphosite abundance difference
Protocol: IMAC beads were prepared from Ni-NTA (nitrilotriacetic acid) superflow agarose beads. The nickel was stripped with 100 mM EDTA and incubated in an aqueous solution of 10 mM iron (III) chloride (FeCl3). Dried peptide fractions were reconstituted to a concentration of 0.5 μg/μL in 80% ACN/0.1% TFA. Peptide mixtures were enriched for phosphorylated peptides with 5 μL IMAC beads for 30 min with end-to-end rotation.
Enriched IMAC beads were loaded on Empore C18 silica-packed stage tips. Stage tips were equilibrated with acetonitrile followed by 50% ACN/0.1% FA then 1% FA. The beads with enriched peptides were loaded onto C18 stage tips and washed with 80% ACN/0.1% TFA. Phosphorylated peptides were eluted from IMAC beads with 500 mM dibasic sodium phosphate, pH 7.0. These peptides were washed with 1% FA before elution using 50% acetonitrile in 0.1% FA. The peptides were then dried by SpeedVac and stored at −20 °C until mass spectrometry analysis. The dried phosphopeptides were reconstituted in 0.1% formic acid and analyzed on an Orbitrap Ascend mass spectrometer coupled to a Thermo Fisher Scientific Vanquish Neo UHPLC. […] The total run time was set to 155 min. A survey full scan MS (from m/z 350–1500) was acquired in the Orbitrap at a resolution of 120,000 at 200 m/z. The most intense ions with charge state ≥2 were isolated and fragmented using higher collision dissociation (HCD) fragmentation, with 30% normalised collision energy, and detected at a mass resolution of 50,000 at 200 m/z. The isolation window was set at 1.6. The phosphoproteomics raw data were searched using SEQUEST HT search engines with Proteome Discoverer 3.0 (Thermo Fisher Scientific). The following parameters were used for searches: Precursor mass tolerance 10 ppm, fragment mass tolerance 0.02, enzyme: trypsin, […], fixed modification: carbamidomethylation of cysteine residues and TMT of lysine and N-terminal, dynamic modification: oxidation of methionine and phosphorylation of serine, threonine and tyrosine. The data were filtered for 1% PSM and peptide level. A two-tailed t-test with 250 randomisations was performed in Perseus software (v1.6.15.0) to assess statistical significance between groups. The resulting data were visualised as a volcano plot using GraphPad Prism (v10.1.2).

[6] = test system: GSK3β Ser9 and GSK3β Tyr216 phosphorylation; assay: GSK3β phosphorylation (Ser9, Tyr216) immunoblot in HEK293 cells; type: cell-based, human; conditions: for impact on GSK3β Ser9 or GSK3β Tyr216 phosphorylation prior to degradation: 10 nM 24, 27, 10 nM and 1 µM 29, 30 min
Protocol: HEK293, HAP1, HAP1 CRBN KO and SH-SY5Y cells were plated in either 6 cm plates or 6-well plates at varying densities (0.5–0.7 × 10^6 cells per plate or wells), and MEF cells were plated in 10 cm plates (1–1.2 × 10^6 cells per plate) depending on experimental set up in respective culturing condition as described above. Stock solutions of compounds were prepared as 10 mM in DMSO (Sigma–Aldrich). Working dilutions were made up fresh in DMSO and culturing media or differentiation media was refreshed prior to any compound treatments. For mode of action studies, cells were pre-treated with inhibitors for 2 h: 1 µM MG132 (Merck, 474790-5 mg), 1 µM MLN4924 (Merck, 5054770001) or 1 µM GSK3 inhibitor (compound 29), before treating with PROTACs for 2, 4 or 24 h as indicated in figure legends. Cells were washed twice with ice-cold PBS (Gibco), harvested in PBS and pelleted, cells were resuspended in RIPA buffer supplemented with complete EDTA-free protease inhibitor cocktail (Roche,11873580001, 1/10 mL) and phosSTOP (Roche, 04906845001, 1 tablet/10 mL) for 20 min lysis on ice then cleared via centrifugation at 16,000 × g, 4 °C for 20 min. SH-SY5Y cells were lysed in 500 µL ice-cold lysis buffer (25 mM Tris-HCl (pH 7.4), 50 mM NaF, 100 mM NaCl, 1 mM EDTA, 4 mM EGTA, 1% (v/v) Triton-X-100, 0.09% (w/v) sucrose, 10 mM sodium pyrophosphate, 10 mM sodium vanodate, 0.1% (v/v) β-mercaptoethanol, supplemented with complete mini protease inhibitor tablet (Sigma; 1 tablet/ 10 mL buffer)). Lysates were flash frozen, thawed and centrifugated at 16,000 × g, 4 °C for 20 min. Following clearance of lysates, protein concentrations were determined by the BCA assay (Fisher Scientific, 23225) or Bradford assay (Bio-rad). Five to thirty micrograms of protein from lysates were prepared in 4×LDS buffer (Thermo Fisher) and 50 mM dithiothreitol (DTT) denaturated at 95 °C for 5 min. Proteins were separated on NuPAGE 4–12% Bis-Tris gels (Invitrogen) or 4–12% Novex Tris-glycine gels (Invitrogen) in MOPS buffer (Invitrogen) and transferred onto nitrocellulose membranes using an iBlot3 system (Thermo Fisher Scientific) or nitrocellulose membranes (Cytiva) in cold tris-glycine-methanol buffer (25 mM Tris (pH 7.5), 192 mM glycine, 20% (v/v) methanol). Membranes were blocked with either 5% fat-free milk (Marvel) or 1% (w/v) BSA (Sigma) in TBS-T (20 mM Tris (pH 7.5), 150 mM NaCl, 0.1% (v/v) Tween-20 (Sigma)) at room temperature for 30 min, or in the case of SH-SY5Y assays, 1 h, before incubating with primary antibodies overnight at 4 °C on a rocker. […]

With O=C1CCC(NC(=O)c2ccc(CN3CCN(CCCCCc4cn(-c5ccc(-c6cn7nccc(C(=O)Nc8cnccc8N8CCOCC8)c7n6)cc5)nn4)CC3)cc2F)C(=O)N1 (centres unmarked) [compound 21] the “Scaled Microsomal Stability MuClint” value [1] was 15 ml/min/g liver, the “Scaled Microsomal Stability HuClint” value [2] was 27 ml/min/g liver and the “Scaled Microsomal Stability RatClint” value [3] was 2.6 ml/min/g liver.

In the case of O=C1CCC(NC(=O)c2ccc(CN3CCN(CCCc4cn(-c5ccc(-c6cn7nccc(C(=O)Nc8cnccc8N8CCOCC8)c7n6)cc5)nn4)CC3)cn2)C(=O)N1 (centres unmarked) [compound 23], the Dmax ([4]; HEK293, crude mixture, stock assumed 10 mM) is reported as 81% and the Dmax ([4]; HEK293, pure (resynthesised, HPLC purified) compound) is reported as 73%.

For CN1C(=O)CCN(c2nn(C)c3cc(CN4CCN(Cc5ccc(-c6cn(-c7ccc(-c8cn9nccc(C(=O)Nc%10cnccc%10N%10CCOCC%10)c9n8)cc7)nn6)nc5)CC4)ccc23)C1=O [compound 27], the “Difference, E2F8 A0AVK6 1xPhospho [S68(99.5)]” value ([5]; 27 vs DMSO, MOESM7) was -0.2137, the “Difference, E2F8 A0AVK6 1xPhospho [S417(100)]” value ([5]; 27 vs DMSO, MOESM7) was 0.1148 and the “Difference, GATD3B A0A0B4J2D5 1xPhospho [S98(100)]” value ([5]; 27 vs DMSO, MOESM7) was 0.02358. For the same compound, the “Difference, SIK1B A0A0B4J2F2 1xPhospho [S575(100)]” value ([5]; 27 vs DMSO, MOESM7) was 0.09328, the “Difference, UBA6 A0AVT1 1xPhospho [S36(100)]” value ([5]; 27 vs DMSO, MOESM7) was 0.2252 and the “Difference, A0JNW5 1xPhospho [S414(100)] UHRF1BP1L” value ([5]; 27 vs DMSO, MOESM8) was 0.1475. The “Difference, A0JNW5 1xPhospho [S953(99.7)] UHRF1BP1L” value ([5]; 27 vs DMSO, MOESM8) was -0.0085, the “Difference, A0MZ66 1xPhospho [S506(100)] SHTN1” value ([5]; 27 vs DMSO, MOESM8) was 0.1099 and the “Difference, A0MZ66 1xPhospho [S512(100)] SHTN1” value ([5]; 27 vs DMSO, MOESM8) was 0.06022. For the same compound, the “Difference, A0MZ66 1xPhospho [T537(100)] SHTN1” value ([5]; 27 vs DMSO, MOESM8) was -0.2879, the “Difference, Q5PRF9 1xPhospho [S592(100)] SAMD4B” value ([5]; vs DMSO, MOESM9) was 0.05893 and the “Difference, Q8NEM7 1xPhospho [S437(100)] SUPT20H” value ([5]; vs DMSO, MOESM9) was 0.2274. For the same compound, the “Difference, Q96KQ7 1xPhospho [S140(100)] EHMT2” value ([5]; vs DMSO, MOESM9) was 0.333, the “Difference, Q15398 1xPhospho [S725(100)] DLGAP5” value ([5]; vs DMSO, MOESM9) was 0.1236 and the “Difference, Q15911 1xPhospho [S426(100)] ZFHX3” value ([5]; vs DMSO, MOESM9) was 0.1806. The “impact on GSK3β Ser9 or GSK3β Tyr216 phosphorylation prior to degradation” value [6] was “no impact observed”.

With O=C(Nc1cnccc1N1CCOCC1)c1ccnn2cc(-c3ccc(Br)cc3)nc12 [compound 29] the “impact on GSK3β Ser9 or GSK3β Tyr216 phosphorylation prior to degradation” value [6] was “no impact observed” and the “phosphorylation of Tyr216 after 2 h” value ([6]; 1 µM, 2 h) was “some reduction in phosphorylation of Tyr216”.
